Legend:
[1] = Blood-brain barrier penetration in animals, preliminary tests; type: in vivo
Excerpt: The present example describes an approach for assessing is the ability of, inter alia, the two compounds referenced above (i.e., VX-765 and NCGC00185682) to cross the blood brain-barrier (BBB). […] In view of the fact that studies of VX-765 as a potential epilepsy therapeutic are currently underway at Vertex, it is hypothesized that either BBB penetration in humans is better or that the amount of compound in the CNS that is needed to achieve the desired effect being measured in the studies is small.

[2] = molecular target: T1, ICE (Homo sapiens, UniProt P29466); assay: ICE digestion of α-synuclein in vitro, SDS-PAGE and western blot with anti-synuclein antibody; type: biochemical
T1 sequence (P29466 120-297 limits assumed): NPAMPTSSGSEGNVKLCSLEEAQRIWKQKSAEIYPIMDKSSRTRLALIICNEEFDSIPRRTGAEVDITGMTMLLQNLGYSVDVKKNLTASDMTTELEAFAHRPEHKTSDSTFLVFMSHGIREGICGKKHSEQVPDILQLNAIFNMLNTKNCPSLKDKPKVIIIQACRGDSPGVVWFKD
T1 sequence (P29466 317-404 limits assumed): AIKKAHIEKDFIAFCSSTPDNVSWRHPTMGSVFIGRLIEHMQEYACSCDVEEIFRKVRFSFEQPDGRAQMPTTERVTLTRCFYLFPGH
Method: Here, a 60 ul reaction mixture consisting of 21 μg of synuclein, 10 μg ICE in 100 mM HEPES, pH 7.4, 0.1% OG, 10% glycerol, 150 mM NaCl, with or without 20 μM inhibitor was incubated at 37° C. for 2 hours. 20 μl were withdrawn from the reaction for SDS-PAGE followed by western blotting with anti-synuclein antibody (FIG. 6).

[3] = test system: M17 cells overexpressing alpha-synuclein; assay: LIVE/DEAD cell viability assay, rescue from alpha-synuclein-induced toxicity; type: cell-based, human; settings: FIG. 10
Excerpt: (§1) Humans have 28 calpain and caspase isozymes—a large but not impossible number to test. RNAi was used to knock down each of these in turn in a neuronal cell culture model of PD. It is a neuroblastoma cell line (BE(2)-M17) carrying a wild-type α-synuclein overexpressing vector. BE(2)-M17 is a clone of the SK-N-BE(2) cell line that was established in November of 1972 from a bone marrow biopsy taken from a child with neuroblastoma. Synuclein on its own is not toxic to these cells, but it is toxic when combined with an oxidative stress agent such as rotenone or menadione. Greater than 90% reduction of mRNA levels for each of the 29 protease genes was routinely achieved, and greater than 50% reduction in protein levels (typically, about 70% reduction) was routinely achieved.
A cell viability assay was performed using LIVE/DEAD (molecular probes) assay according to the manufacture instructions. As summarized in FIG. 10, both RNAi knockdown of caspase-1/ICE and treatment with the caspase-1/ICE inhibitor block synuclein fragment formation in nerve cells and should inhibit synuclein aggregation in neuronal cells derived from one or more mouse models of PD.

[4] = test system: M17 cells carrying empty pcDNA3 vector; assay: M17 cell viability in the presence of menadione (empty vector); type: cell-based, human; settings: low concentrations; FIG. 8
[5] = test system: M17 cells overexpressing α-synuclein; assay: M17 cell viability in the presence of menadione (α-synuclein overexpression); type: cell-based, human; settings: low concentrations; FIG. 8
Excerpt: as §1

[6] = test system: M17 overexpressing α-synuclein; assay: α-synuclein fragmentation in M17 cells, western blot with anti-synuclein antibody; type: cell-based, human; settings: 12 μM and 14 μM in 1% DMSO; FIG. 9
Method: In this set of experiments, M17 overexpressing α-synuclein was grown in Optimem in presence or absence of menadione to confluence. Cells were then scraped and lysed by sonnication for SDS-PAGE followed by western blotting with anti-synuclein antibody.

| BBB penetration [1] | ICE-generated α-synuclein fragment below 17 kD (western blot) ([2]; 20 μM inhibitor, 10 μg ICE, 37° C., 2 hours) | block of caspase-1 cleavage of alpha-synuclein ([2]; dose-dependent, FIG. 6) | Structure (SMILES) | rescue from alpha-synuclein-induced toxicity (cell viability) [3] | toxicity to M17 cells carrying empty pcDNA3 vector [4] | toxicity to M17 cells overexpressing α-synuclein [5] | fragmentation of α-synuclein (smaller fragment below 17 kD) [6] |
| --- | --- | --- | --- | --- | --- | --- | --- |
| low | diminished | completely blocks | CC(C)(C)[C@H](NC(=O)c1ccc(N)c(Cl)c1)C(=O)N1CCC[C@H]1C(=O)N[C@H](C#N)CC(=O)O [NCGC00185682] |  |  |  |  |
| low |  |  | CCO[C@@H]1OC(=O)C[C@@H]1NC(=O)[C@@H]1CCCN1C(=O)[C@@H](NC(=O)c1ccc(N)c(Cl)c1)C(C)(C)C [VX-765] | rescued |  |  |  |
|  |  |  | CC1=CC(=O)c2ccccc2C1=O [menadione] |  | not toxic | toxic | induced fragmentation of α-synuclein |

From patent US9116157B2, “Ice-cleaved alpha-synuclein as a biomarker” (Brandeis University, priority 2010, dated 2015)
